{
  "source": "patent US20250288570A1",
  "about": "“TREATMENT OF NEUROLOGICAL DISORDERS” (Praxis Precision Medicines, Inc., priority 2022, published 2025)",
  "test": "Phase 1 clinical trial, single ascending dose (Part A), healthy volunteers",
  "type": "in vivo, human",
  "text": "This is a trial to assess the safety, tolerability, pharmacokinetics (PK), and pharmacodynamics (PD) of Compound 1 in healthy participants aged 18 to 55 years (inclusive). The trial is initially comprised of 2 parts, with 1 additional optional part, as follows: • Part A is randomized, double-blinded, and placebo-controlled. Part A is designed to investigate the safety, PK, and PD of single ascending doses of Compound 1. • Part B is randomized, double-blinded, and placebo-controlled. Part B is designed to investigate the safety, PK, and PD of multiple ascending doses (selected based on the results from Part A) of Compound 1. • Part C (optional) is a randomized, open-label, crossover design food effect evaluation to investigate the PK of a single dose (selected based on the results from Part A) of Compound 1 in the fasted and fed state.\nSafety and tolerability assessments for Parts A, B, and C will include vital signs, 12-lead ECGs, physical examinations, clinical laboratory tests, and the C-SSRS (for Part B).\nHealthy participants will be enrolled to receive single ascending oral doses of Compound 1 or placebo on Day 1. FIG. 14A is an illustration of the dosing scheme for Part A (single ascending dose) of the trial. Dose escalation in Part A will initially be conducted in up to a total of 4 planned cohorts (Cohorts A1 to A4). Following completion of Cohort A4, up to an additional 3 escalation cohorts may be added. […] Doses may be adjusted upward or downward based on safety, tolerability, and PK data from the preceding cohorts. Cohorts after A4 will be numbered sequentially (A5, A6, etc.). […]\nCompound 1 will be administered to Cohort A1 participants at the starting dose of 5 mg. […] The safety and tolerability of each sentinel participant will be monitored until Day 2 and will be reviewed prior to dosing the remainder of participants in the cohort. […]\nCohorts will be dosed in an escalating order. […] If the current dose level is determined to be safe and tolerated by the SRC, the next dose cohort will be randomized to receive the selected dose of active Compound 1 or placebo. […]",
  "data": [
    {"smiles": "CCOC(F)(F)c1nnc2ccc(-c3cnc(OCC(F)(F)F)c(F)c3)cn12", "note": "[Compound 1]", "values": [
      {"measurement": "safety and tolerability (in words)", "setting": "healthy participants, single oral doses up to 45 mg", "result": "safe and generally well tolerated"},
      {"measurement": "most frequently reported TEAEs", "setting": "single doses up to 45 mg", "result": "headache and fatigue"},
      {"measurement": "severity of treatment-emergent adverse events", "setting": "single doses up to 45 mg", "result": "mild in severity"}
    ]}
  ]
}
